In patent publication US4377587A, “Arylamine derivatives and use thereof as microbicides” (Ciba-Geigy Corporation, priority 1980, dated 1983):
Values after ≈ are worked out from the molar mass of the structure shown.

Legend:
Water solubility = format: physicochemical; conditions: 25° C.
Text: (§1) Determination of physico-chemical data
(a) Reduced water solubility

[1] = Volatility: evaporation half-life T50 in an evaporating tube; format: physicochemical; conditions: 50° C., stream of air of 20 m/h, relative to T50 of Metalaxyl
Description: as §1
In an evaporating tube, the evaporation half-life values T50 of representative fungicides of this invention are determined at 50° C. and in a stream of air of 20 m/h. The values are shown below, relative to the corresponding half-life T50 of Metalaxyl.

Pythium debaryanum [2] = experiment: Action on Pythium debaryanum on sugar beets, (a) after soil application; format: in vivo; conditions: sugar beet, 20 ppm of active ingredient based on volume of soil, 2-3 weeks at 20°-24° C.
Text: (§2) Action on Pythium debaryanum on sugar beets
(a) Action after soil application
The fungus is cultivated on carrot chips nutrient solution and added to a mixture of earth and sand. Flower pots are filled with the infected soil, in which sugar beet seeds are then sown. Immediately after sowing, the test preparations formulated as wettable powders are poured in the form of aqueous suspensions over the soil (20 ppm of active ingredient, based on the volume of the soil). The pots are then stood for 2-3 weeks in a greenhouse at 20°-24° C. The soil is kept uniformly moist by gently spraying it with water. The emergence of the sugar beet plants as well as the number of healthy and sick plants are ascertained in evaluating the test.

Phytophthora infestans [3] = format: in vivo, Phytophthora infestans (on tomato plants); conditions: tomato, spray 0.06% active ingredient, infested after 24 hours, evaluated after 5 days at 20° C.
Phytophthora infestans [4] = format: in vivo, Phytophthora infestans (on tomato plants); conditions: tomato, sprayed 0.06% active ingredient 22 hours after infestation, evaluated 5 days after infestation
Podosphaera leucotricha = experiment: Residual-protective action against Podosphaera leucotricha on apples; format: in vivo; conditions: apple seedlings, spray 0.06% of active ingredient, evaluated 12 days after infection
Description: Residual-protective action against Podosphaera leucotricha on apples
Apple seedlings in the 5-leaf stage are sprayed with a spray mixture (0.06% of active ingredient) prepared from a wettable powder formulation of the active ingredient. After 24 hours the treated plants are infected with a conidia suspension of the fungus and placed in a climatic chamber at 70% relative humidity and 20° C. Evaluation of fungus infestation is made 12 days after infection.

Pythium debaryanum [5] = experiment: Action on Pythium debaryanum on sugar beets, (b) after seed dressing application; format: in vivo; conditions: sugar beet, seed dressing 0.06%, 2-3 weeks at c. 20° C.
Description: as §2
(b) Action after seed dressing application
The fungus is cultivated on carrot chip nutrient solution and added to a mixture of earth and sand. Flower pots are filled with the infected soil and sugar beet seeds which have been treated with the test preparations formulated as seed dressing powders are sown therein (0.06% of one of the compounds of Tables 1 and 2). The pots are then stood in a greenhouse for 2-3 weeks at c. 20° C. The soil is kept uniformly moist by gently spraying it with water. The emergence of the sugar beet plants is ascertained in evaluating the test.

Venturia inaequalis = experiment: Residual-protective action against Venturia inaequalis on apple shoots; format: in vivo; conditions: spray 0.06%, evaluated 15 days after infection
Description: Residual-protective action against Venturia inaequalis on apple shoots
Apple cuttings with 10-20 cm long fresh shoots are sprayed with a spray mixture prepared from a wettable powder formulation of the active ingredient (0.06%). After 24 hours the treated plants are infected with a conidia suspension of the fungus. The plants are then incubated for 5 days at 90-100% relative humidity and stood in a greenhouse for a further 10 days at 20°-24° C. Scab infestation is evaluated 15 days after infection.

Erysiphe graminis = experiment: Action against Erysiphe graminis on barley, residual protective action; format: in vivo, Erysiphe graminis (on barley plants); conditions: 0.02% active ingredient sprayed, infected after 3-4 hours, evaluated after 10 days
Description: Action against Erysiphe graminis on barley
Residual protective action
Barley plants about 8 cm in height are sprayed with a spray mixture (0.02% of active ingredient) prepared from the active ingredient formulated as a wettable powder. The treated plants are dusted with conidia of the fungus after 3-4 hours. The infected barley plants are then stood in a greenhouse at about 22° C. The extent of the fungus infection is evaluated after 10 days.

Row | Structure (SMILES) | solubility (Water solubility) [µg/mL] | Multiple of Metalaxyl T50 (evaporation half-life) [1] [×] | emergent plants (fully effective against Pythium pathogens), soil application (Pythium debaryanum [2]) | fungus attack compared with untreated control plants (100% attack), residual-protective (Phytophthora infestans [3]) | fungus attack compared with untreated and infected control plants (100% attack), residual curative (Phytophthora infestans [4]) | fungus attack compared with untreated and infected control seedlings (100% attack) (Podosphaera leucotricha) | emergent plants (fully effective against Pythium pathogens), seed dressing application (Pythium debaryanum [5]) | scab infestation (reduced to) (Venturia inaequalis) | fungus attack compared with control plants (100% attack) (Erysiphe graminis)
1 | COCC(=O)N(c1c(C)cccc1N)C(C)C(=O)OC (stereo not drawn) [Compound 2, N-(1'-methoxycarbonylethyl)-N-methoxyacetyl-2-amino-6-methyl-aniline] | 300 (≈ 1070 µM) | 5.4 | over 90% | less than 10% | less than 10% | less than 10% | over 90% |  | 
2 | COCC(=O)N(c1c(N)ccc(C)c1C)C(C)C(=O)OC (stereo not drawn) [Compound 8, N-(1'methoxycarbonylethyyl)-N-methoxyacetyl-2,3-dimethyl-6-aminoaniline] |  |  | over 90% | less than 10% | less than 10% | less than 10% | over 90% | 10-15% | 
3 | COCC(=O)N(c1c(C)ccc(N)c1C)C(C)C(=O)OC (stereo not drawn) [Compound 10, N-(1'methoxycarbonylethyl)-N-methoxyacetyl-2,6-dimethyl-3-aminoaniline] |  |  | over 90% | less than 10% | less than 10% | less than 10% | over 90% | 10-15% | less than 10%
4 | COCC(=O)N(c1c(C)ccc([N+](=O)[O-])c1C)C(C)C(=O)OC(C)C (stereo not drawn) [Compound 33, N-(1'-isopropyloxycarbonylethyl)-N-methoxyacetyl-2,6-dimethyl-3-nitroaniline] | 500 (≈ 1420 µM) | 45.6 | over 90% | less than 10% | less than 10% | less than 10% | over 90% |  | 
5 | COCC(=O)N(c1c(C)cccc1[N+](=O)[O-])C(C)C(=O)OC (stereo not drawn) [Compound 48, N-(1'-methoxycarbonylethyl)-N-methoxyacetyl-2-methyl-6-nitroaniline] | 4000 (≈ 12900 µM) | 12.3 | over 90% | less than 10% | less than 10% | less than 10% | over 90% |  | 
6 | COCC(=O)N(c1c(N)ccc2ccccc12)C(C)C(=O)OC (stereo not drawn) [Compound 701, 1N-(1'-methoxycarbonylethyl)-1N-methoxyacetyl-1,2-diaminonaphthalene] |  |  | over 90% | less than 10% | less than 10% |  | over 90% | 10-15% | 
